Test results from the supplement of paper PMC10307832.

Assays:
Assay in all cases: relative viability (nuclei count vs DMSO), 5 days (fraction); higher = more cells survive
Motesanib + OSI-027 = compound: CC1(C)CNc2cc(NC(=O)c3cccnc3NCc3ccncc3)ccc21 [Motesanib] + COc1cccc2cc(-c3nc([C@H]4CC[C@H](C(=O)O)CC4)n4ncnc(N)c34)[nH]c12 [OSI-027] (partner 0.5 µM)
Procedure, shortened: (§1)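 Relative viability was taken as the ratio of nuclei in treated wells to nuclei in vehicle wells. Lung cancer cell lines in 1536-well plates received compounds by pin tool one day after seeding, either one drug alone or a fixed anchor-drug dose plus five library-drug doses (not always all listed) in √10 steps. Nuclei were counted on 4× images after 5 days of treatment, and values are medians of duplicate plates.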

Motesanib + Linsitinib = compound: CC1(C)CNc2cc(NC(=O)c3cccnc3NCc3ccncc3)ccc21 [Motesanib] + C[C@]1(O)C[C@@H](c2nc(-c3ccc4ccc(-c5ccccc5)nc4c3)c3c(N)nccn32)C1 [Linsitinib] (partner 1 µM)
Procedure, shortened: as §1

Motesanib + Phenformin = compound: CC1(C)CNc2cc(NC(=O)c3cccnc3NCc3ccncc3)ccc21 [Motesanib] + N=C(N)NC(=N)NCCc1ccccc1 [Phenformin] (partner 250 µM)
Procedure, shortened: as §1

[1] = compound: C[C@@]1(C(=O)Nc2ccc(F)nc2)CCCN1c1nc(Nc2cc(C3CC3)n[nH]2)c2cccn2n1 + CCNC(=O)c1noc(-c2cc(C(C)C)c(O)cc2O)c1-c1ccc(CN2CCOCC2)cc1 [Luminespib] (partner 0.01 µM)
Procedure, shortened: as §1

| Cell Line | relative viability (Motesanib + OSI-027; first compound 0.01 µM) | relative viability (Motesanib + OSI-027; first compound 0.03162 µM) | relative viability (Motesanib + OSI-027; first compound 0.1 µM) | relative viability (Motesanib + OSI-027; first compound 0.3162 µM) | relative viability (Motesanib + OSI-027; first compound 1 µM) | relative viability (Motesanib + Linsitinib; first compound 0.01 µM) | relative viability (Motesanib + Linsitinib; first compound 0.03162 µM) | relative viability (Motesanib + Linsitinib; first compound 0.1 µM) | relative viability (Motesanib + Linsitinib; first compound 0.3162 µM) | relative viability (Motesanib + Linsitinib; first compound 1 µM) | relative viability (Motesanib + Phenformin; first compound 0.01 µM) | relative viability (Motesanib + Phenformin; first compound 0.03162 µM) | relative viability (Motesanib + Phenformin; first compound 0.1 µM) | relative viability (Motesanib + Phenformin; first compound 0.3162 µM) | relative viability (Motesanib + Phenformin; first compound 1 µM) | relative viability ([1]; first compound 0.04 µM) | relative viability ([1]; first compound 0.1265 µM) | relative viability ([1]; first compound 0.4 µM) | relative viability ([1]; first compound 1.265 µM) |
| --- | --- | --- | --- | --- | --- | --- | --- | --- | --- | --- | --- | --- | --- | --- | --- | --- | --- | --- | --- |
| LC-2-ad | 0.927 | 0.948 | 0.872 | 0.803 | 0.716 | 0.828 | 0.834 | 0.858 | 0.881 | 0.766 | 0.531 | 0.664 | 0.566 | 0.566 | 0.534 | 0.97 | 0.859 | 0.719 | 0.599 |
| SK-LU-1 | 0.35 | 0.36 | 0.401 | 0.41 | 0.394 | 1.14 | 1.01 | 1.2 | 1.1 | 1.32 | 0.489 | 0.5 | 0.539 | 0.569 | 0.591 | 0.208 | 0.191 | 0.184 | 0.172 |
| COR-L 105 | 0.768 | 0.7 | 0.717 | 0.689 | 0.626 | 0.872 | 1.22 | 1.04 | 0.889 | 1.17 | 0.485 | 0.499 | 0.538 | 0.573 | 0.463 | 0.672 | 0.62 | 0.624 | 0.685 |
| NCI-H1975 | 0.66 | 0.702 | 0.747 | 0.677 | 0.669 | 0.962 | 0.9 | 0.948 | 0.909 | 0.941 | 0.407 | 0.391 | 0.393 | 0.409 | 0.441 | 0.272 | 0.117 | 0.128 | 0.187 |
| NCI-H1993 | 0.526 | 0.554 | 0.552 | 0.543 | 0.557 | 0.675 | 0.759 | 0.727 | 0.719 | 0.762 | 0.489 | 0.501 | 0.516 | 0.564 | 0.451 | 0.535 | 0.476 | 0.275 | 0.555 |
| RERF-LC-KJ | 0.637 | 0.565 | 0.582 | 0.59 | 0.593 | 0.864 | 0.926 | 0.857 | 0.919 | 0.844 | 0.462 | 0.389 | 0.407 | 0.373 | 0.467 | 1.15 | 0.964 | 1.09 | 0.717 |
| NCI-H23 | 0.602 | 0.593 | 0.609 | 0.675 | 0.614 | 0.582 | 0.609 |  | 0.56 | 0.527 | 0.799 | 0.865 | 0.771 | 0.795 | 0.715 | 0.21 | 0.211 | 0.213 | 0.214 |
| EMC-BAC-2 | 0.398 | 0.341 | 0.36 | 0.412 | 0.378 | 0.828 | 0.805 | 0.827 | 0.817 | 0.86 | 0.527 | 0.507 | 0.581 | 0.56 | 0.539 | 0.863 | 0.941 | 0.713 | 0.857 |
| NCI-H2405 |  | 0.59 | 0.683 | 0.663 | 0.719 |  | 1 | 0.866 | 0.967 | 0.993 |  | 0.265 | 0.404 | 0.402 | 0.422 | 0.549 | 0.489 | 0.374 | 0.432 |
| NCI-H358 | 0.9 | 0.802 | 0.767 | 0.906 | 0.716 | 0.7 | 0.818 | 0.712 | 0.785 | 0.905 | 0.384 | 0.414 | 0.331 | 0.418 | 0.468 | 0.35 | 0.143 | 0.111 | 0.238 |
| NCI-H1944 | 0.37 | 0.424 | 0.438 | 0.475 | 0.427 | 1.2 | 1.21 | 1.18 | 1.32 | 1.21 | 0.184 | 0.2 | 0.221 | 0.246 | 0.254 | 0.562 | 0.652 | 0.399 | 0.586 |
| EPLC-272H | 0.236 | 0.311 |  | 0.263 | 0.244 | 1.23 | 1.26 | 1.26 | 1.24 | 1.38 | 0.253 | 0.333 |  | 0.338 | 0.247 | 0.214 |  | 0.187 | 0.272 |
| NCI-H1915 | 0.575 | 0.72 | 0.625 | 0.631 | 0.632 | 1.09 | 1.19 | 1.11 | 1.16 | 1.08 | 0.395 | 0.362 | 0.249 | 0.375 | 0.357 | 0.816 | 0.736 | 0.781 | 0.862 |
| NCI-H596 | 0.913 | 0.772 | 0.732 | 0.6 | 0.75 | 1.1 | 0.937 | 1.08 | 1.12 | 1.08 | 0.779 | 0.861 | 0.67 | 0.724 | 0.85 | 0.819 | 0.885 | 0.88 | 1.17 |
| NCI-H322M | 0.471 | 0.584 | 0.506 | 0.584 | 0.566 | 1.03 | 0.91 | 0.913 | 0.92 | 0.98 | 0.748 | 0.823 | 0.806 | 0.798 | 0.791 | 0.583 | 0.405 | 0.406 | 0.566 |
| NCI-H2228 | 0.572 | 0.455 | 0.489 | 0.689 | 0.572 | 0.685 | 0.544 | 0.689 | 0.5 | 0.509 | 0.26 | 0.329 | 0.257 | 0.394 | 0.208 | 0.121 | 0.121 | 0.15 | 0.116 |
| NCI-H647 | 0.848 | 0.528 | 0.578 | 0.717 | 0.557 | 1.17 | 1.12 | 1.38 | 1.14 | 1.14 | 0.491 | 0.554 | 0.462 | 0.657 | 0.524 | 0.152 | 0.245 | 0.181 | 0.164 |
